One data set concerns HaCaT cells. Briefly: Skin cell toxicity assay with HaCaT (alamarBlue). Type of data set: cell-based, human. The procedure, abridged: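 HaCaT cells seeded at 2x10^4 per well 24 hours before 1-hour exposure to a 2–100 µM triplicate dilution series in DMEM high glucose with 10% FBS at 37 °C, 5% CO2. Viability assessed with alamarBlue; ED50 defined as dose killing 50% of cells, derived from dose-response data.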
For orientation: The colour change of resazurin is a common sign of viable cells or microbes.

In the next data set the test system is HepG2 cells. The data set can be described thus: Cytotoxicity assay with HepG2 (alamarBlue). The class given is cell-based, human. In outline: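 HepG2 cells (2 × 10^4/well, seeded 1 day earlier) were exposed to compounds (2–100 μM dilution series, triplicate) for 1 h in reduced volume, then diluted with medium and incubated 24 h at 37 °C. Viability was read by alamarBlue after 2 h (Ex 560/Em 600 nm), and ED50 (dose killing 50% of cells) came from dose-response curves.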

The mark [1] stands for this setting: dose that kills 50% of cells, 2–100 μM, 1 h with compound then 24 h, alamarBlue.
[2] abbreviates: human, HaCaT cells (keratinocytes), 24 h.

Square brackets hold non-standard residues; d marks the D form. Peptide text beside a SMILES is read from it. Gly(N-(CH2)6NH2) = NCCCCCCNCC(=O)O; Gly(N-2-aminoethyl) = NCCNCC(=O)O; Nspe = C[C@H](NCC(=O)O)c1ccccc1; Nphe = O=C(O)CNCc1ccccc1; Nlys = NCCCCNCC(=O)O Where only a bound is given, the exact number is not on record here.

These results are taken from publication PMC6072100, “Exploring the links between peptoid antibacterial activity and toxicity” (MedChemComm, 2017).

In the case of `C[C@@H](c1ccccc1)N(CC(N)=O)C(=O)CN(C(=O)CN(CCCCN)C(=O)CN(C(=O)CN(C(=O)CN(CCCCN)C(=O)CN(C(=O)CN(C(=O)CNCCCCN)[C@@H](C)c1ccccc1)[C@@H](C)c1ccccc1)[C@@H](C)c1ccccc1)[C@@H](C)c1ccccc1)[C@@H](C)c1ccccc1` [Peptoid 14, (NLysNspeNspe)3] (H-[Nlys][Nspe][Nspe][Nlys][Nspe][Nspe][Nlys][Nspe][Nspe]-NH2), the “ED50 HaCaT” value in the data set on HaCaT cells (setting [1]) is greater than 100 µM. In the data set with HepG2 cells (setting [1]), the “ED50 HepG2” value was greater than 100 µM.
For the molecule `C[C@@H](c1ccccc1)N(CC(N)=O)C(=O)CN(C(=O)CN(CCCCN)C(=O)CN(C(=O)CN(C(=O)CNCCCCN)[C@@H](C)c1ccccc1)[C@@H](C)c1ccccc1)[C@@H](C)c1ccccc1` [Peptoid 15, (NLysNspeNspe)2] (H-[Nlys][Nspe][Nspe][Nlys][Nspe][Nspe]-NH2), in the data set on HaCaT cells (setting [2]), the “ED50 HaCaT” value is greater than 100 µM. The “ED50 HepG2” value in the data set with HepG2 cells (human, HepG2 cells, 24 h) is greater than 100 µM.
For `C[C@@H](c1ccccc1)N(CC(N)=O)C(=O)CN(C(=O)CN(CCCCCCN)C(=O)CN(C(=O)CN(C(=O)CN(CCCCCCN)C(=O)CN(C(=O)CN(C(=O)CNCCCCCCN)[C@@H](C)c1ccccc1)[C@@H](C)c1ccccc1)[C@@H](C)c1ccccc1)[C@@H](C)c1ccccc1)[C@@H](C)c1ccccc1` [Peptoid 11, (NahNspeNspe)3] (H-[Gly(N-(CH2)6NH2)][Nspe][Nspe][Gly(N-(CH2)6NH2)][Nspe][Nspe][Gly(N-(CH2)6NH2)][Nspe][Nspe]-NH2), in the data set with HaCaT cells (setting [2]), the “ED50 HaCaT” value is greater than 100 µM. In addition, the “ED50 HepG2” value in the data set on HepG2 cells (human, HepG2 cells, 24 h) is greater than 100 µM.
As to `NCCNCC(=O)N(CC(=O)N(CC(=O)N(CCN)CC(=O)N(CC(=O)N(CC(=O)N(CCN)CC(=O)N(CC(=O)N(CC(=O)N(CCN)CC(=O)N(CC(=O)N(CC(N)=O)Cc1ccccc1)Cc1ccccc1)Cc1ccccc1)Cc1ccccc1)Cc1ccccc1)Cc1ccccc1)Cc1ccccc1)Cc1ccccc1` [Peptoid 7, (NaeNpheNphe)4] (H-[Gly(N-2-aminoethyl)][Nphe][Nphe][Gly(N-2-aminoethyl)][Nphe][Nphe][Gly(N-2-aminoethyl)][Nphe][Nphe][Gly(N-2-aminoethyl)][Nphe][Nphe]-NH2), in the data set with HaCaT cells, the “toxicity to HaCaT or HepG2 (in words)” value was “negligible toxicity”. For the same molecule, the “ED50 HaCaT” value in the data set with HaCaT cells (setting [2]) is greater than 100 µM. In the data set with HepG2 cells (human, HepG2 cells, 24 h), the “ED50 HepG2” value was greater than 100 µM.
